Data from patent US8722673B2, “Imine compounds for combating invertebrate pests” (BASF SE, priority 2008, dated 2014).

Columns and labels:
Type in all cases: in vivo
[1] = system: Acrobat Ant Workers (Crematogaster sp.); experiment: Acrobat ant workers glass vial contact assay; conditions: 100 ppm; 48 h after treatment
Procedure: (§1) If not otherwise specified, the tests were conducted as glass vial contact assays. Glass vials (20 ml scintillation vials) were used. Treatment solutions were mixed with technical grade chemicals diluted in acetone. Treatment solutions needed for the assays included generally 1 and 10 ppm (0.01 and 0.1 μg/cm^2, respectively), but optionally also 100 and/or 1000 ppm for first tier vials. As commercial standard, alphacypermethrin was run at 1 ppm. As solvent control, acetone was used for the assay. Treatment solution was pipetted into the bottom of each vial. Each vial was turned on its side and placed onto a commercial grade hot dog roller without applying heat. The uncapped vials were allowed to roll to allow for the acetone treatment to vent off. After drying, the vials were placed into the compartmented vial shipping boxes. The workstation was prepared by chilling the table and plastic Petri dishes with the inside wall coated with Fluon. A weigh boat of 10% sugar water saturated cotton dental pellets was also prepared. The animal pests were collected into a tube with a rechargeable insect vacuum. The tube of animal pests was placed in a laboratory refrigerator until the animal pests were incapacitated. The animal pests were emptied into chilled Petri dish. A small cotton dental pellet was soaked in water or in 10 wt % sugar water, whereas the excess solution was gently squeezed out. […]

[2] = system: Western Flower Thrips (Frankliniella occidentalis); experiment: Western flower thrips glass vial and leaf disc test; conditions: 300 ppm; larvae or adults; 2 DAT
Procedure: Serial dilutions of each technical grade AI were made in pure acetone. 0.5 ml of the treatment solution was deposited into the bottom of a glass vial (scintillation vial). The cap was screwed back onto the vial and inverted for about five seconds. The cap was subsequently removed and the vial laid on its side and rolled constantly, on a hot dog roller, until all the acetone had flashed off and the inner surface of the vial was dry. Cotton leave discs were also dipped simultaneously into the treatment solutions and allowed to dry. After the vials were dried, the leave discs were placed into the vials to serve as a food/water source for the thrips. Each treatment was replicated 5-fold. Western flower thrips were aspirated into the vials, approximately 5 larvae or adults/vial. Following treatment application the vials were held in a holding room under fluorescent light and constant 26° C. Thrips mortality was assessed at 2 DAT (days after treatment), counting all thrips both dead and alive.

[3] = system: Brown Dog Tick Adults (Rhipicephalus sanguineus); experiment: Brown dog tick adults glass vial contact assay; conditions: 100 ppm; 3 DAT (days after treatment)
Procedure: as §1, with “incapacitated.” for “incapacitated. The animal pests were emptied into chilled Petri dish. A small cotton dental pellet was soaked in water or in 10 wt % sugar water, whereas the excess solution was gently squeezed out.”
Treatment solutions were mixed with test compound diluted in acetone at concentrations of 10 and 100 ppm. […] Ticks were evaluated by rolling the vials on a preheated hotdog roller. […]

Measured: mortality in comparison with untreated controls

Cc1cc(C2=NOC(c3cc(Cl)cc(Cl)c3)(C(F)(F)F)C2)ccc1C=NNC(=O)NCC(F)(F)F (stereo not drawn) [Compound 1-48]
at least 75%: all assays above
